Results from PMC10042774, “Theoretical and molecular mechanistic investigations of novel (3-(furan-2-yl)pyrazol-4-yl) chalcones against lung carcinoma cell line (A549)” (Naunyn-Schmiedeberg's Archives of Pharmacology, 2022).
In brackets after ≈: the same amount, converted by molar mass. Several values for one entry are separate records, joined by “and”; a condition that tells them apart may be missing. Identical values can stand only once.

What was measured:
[1] = system: lung carcinoma (A549) cell line; experiment: MTT assay against lung carcinoma (A549) cell line; assay type: cell-based, human; settings: for IC50: Homo sapiens, A549, 48 h; for IC50 values, Lung carcinoma (A549): 48 h
Description: (§1) In vitro inhibition activity of the newly synthesized series was investigated on cell viability according to the literature review described by Mohamed et al. (Mohamed et al. [2021b]). In a brief explanation of MTT assay employed herein. In vitro, toxicological MTT Kit has been used to perform an (3-[4,5-dimethylthiazole-2-yl]-2,5-diphenyltetrazolium bromide) to measure the cytotoxicity effect of a novel (3-(Furan-2-yl)pyrazol-4-yl) chalcones against A549 cell line. Lung carcinoma cell line A549 was seeded in microplate where the prepared chalcones solution were added to triplicates well. Incubation of plates was done at 37 °C for 48 h. The fresh […]. Lung cells treated with different range concentration of our series [[…]] were incubated, also untreated cells were used as a reference negative control. One percent antibiotic mixture was used, and after incubation. The positive control utilized here was 5-FU ([…]).

[2] = system: normal lung (Wi38) cell line; experiment: MTT assay against normal lung (Wi38) cell line; assay type: cell-based; settings: Homo sapiens, WI-38, 48 h
Description: [Worded in the source for another cell line; this cell line is reported under the same test.] as §1

[3] = system: BAX; experiment: Real-time PCR of BAX expression in A549 cells; assay type: cell-based, human; settings: IC50 conc., 48 h, qPCR, untreated control = 1
Experimental: (§2) Total RNAfrom the compound 7b-, compound 7c-treated A549 cells, and untreated cells were extracted using the Qiagen RNAextraction Kit, Catalog # (74,104). 1 µg of RNAwas reverse transcribed into complementary DNA(cDNA) using High-Capacity cDNA Reverse Transcription Kit (Thermo Fisher scientific, ON, Canada). qPCR was performed using Bio RadSYBR Green qPCR master mix (Bio Rad, California, USA) in a Step One Plus Real-Time PCRSystem (Bio Rad, California, USA). The total reaction volume was 25 µL, 12.5 µL of SYBRgreen master mix, 1 µL of each primer (Bax, Bcl2, P53, CDK4) with 10 pmol/µL (Qiagen, CA, Germany), 2.5 µL of cDNA, and […] of RNAse free water. The thermal cycle of PCR started with an initial denaturation at 95 °C for 10 min, followed by 45 cycles at 94 °C for15 s, 65 °C for 30 s, and 56 °C for 30 s. The relative gene expression was determined using the method of 2^−ΔΔCtafter normalization to the expression of β-actin (Qiagen, CA, Germany) (10 pmol/µL). […]

[4] = system: Bcl2; experiment: Real-time PCR of Bcl2 expression in A549 cells; assay type: cell-based, human; settings: IC50 conc., 48 h, qPCR, untreated control = 1
Experimental: as §2

[5] = system: P53; experiment: Real-time PCR of P53 expression in A549 cells; assay type: cell-based, human; settings: IC50 conc., 48 h, qPCR, untreated control = 1
Experimental: as §2

[6] = system: CDK4; experiment: Real-time PCR of CDK4 expression in A549 cells; assay type: cell-based, human; settings: IC50 conc., 48 h, qPCR, untreated control = 1
Experimental: as §2

[7] = system: human caspase-3; experiment: ELISA of caspase-3 in A549 cell lysates; assay type: cell-based; settings: A549 cells, IC50 conc., 48 h, untreated control 53.69
Experimental: (§3) Elisa assay was performed to detect the concentration of human caspase-3, caspase-8, and caspase-9 in A549 cell culture lysates. The instructions were followed up according to the manuscript instructions described in the following kits: DRG® human Caspase-8 ELISA Kit, Catalogue # (EIA-4863), DRG® human Caspase-9 ELISA Kit, Catalogue # (EIA-4860), and Invitrogen human Caspase-3 Elisa Kit, Catalogue # KHO1091, respectively. All reagents, samples, and standards were prepared as described in the above ELISA kits. Briefly, the procedure was described as followed; the microwell strips were washed twice with wash buffer. A total of 100 μl of standard or samples were added to each well and incubated for 2 h at room temperature (18 to 25 °C). The microwell strips were emptied and washed three times with wash buffer. A total of 100 μl of prepared antibodyanti-rabbit-IgG-HRP) were added to each well for 1 h at room temperature. The step of washing was repeated three times and then, 100 μl of prepared TMB (tetramethyl-benzidine) substrate solution was pipetted to all wells and incubated for 10 min at room temperature. […] The absorbance of each microwell was read immediately on a spectrophotometer at a wavelength of 450 nm. The concentrations of the unknown samples and controls were determined from the standard curve which was plotted using curve fitting software.

[8] = system: human caspase-8; experiment: ELISA of caspase-8 in A549 cell lysates; assay type: cell-based; settings: A549 cells, IC50 conc., 48 h, untreated control 0.375
Experimental: as §3

[9] = system: human caspase-9; experiment: ELISA of caspase-9 in A549 cell lysates; assay type: cell-based; settings: A549 cells, IC50 conc., 48 h, untreated control 1.49
Experimental: as §3

[10] = system: A549 cells; experiment: Flow-cytometric analysis of cell cycle (PI); assay type: cell-based, human; settings: IC50 conc., 48 h
Experimental: (§4) 10^6 of A549 cells were cultured in 60-mm Petri dishes for 24 h and then treated with compound 7batIC50concentrationfor 48 h. The untreated A549 cells were used as a negative control. After 48 h of incubation, A549 cells were centrifuged at1000 rpm for 5 min at 4 °C. The cells pellet were washed in phosphate-buffered saline (PBS) and then centrifuged at 1000 rpm for another 5 min. After discarding the supeRNAtant, the cells were collected in a single cell suspension and fixed in 70% ethanol on ice overnight. After the fixation step, cells were washed with 1 ml 1 × PBS. Finally, the cells pellet was incubated with a 200 µl 1 × propidium iodide (PI) mixture at room temperature in the dark for 30 min. Then, cells were subjected to an Epics XL-MCL flow cytometer (Beckman Coulter, Miami, FL) for DNA content analysis. Cells distribution at different phases was analysed by Multicycle software (Phoenix Flow Systems, San Diego, CA). Annexin V-FITC kit catalogue number (#K101-25) was used to detect the percentage of the apoptotic cells. About 10^6 of A549 cells were collected by centrifugation. Then, cells were washed in 500 µl of 1 × PBS. The cells were collected by centrifugation and then resuspended in the annexin V incubation reagent. The annexin V incubation reagent comprising of 10 μL binding buffer (10X) + 10 μL propidium iodide + 1 μL annexin V-FITC + 79 μL deionized water. The cells in 100 μL annexin V incubation reagent was incubated in dark at room temperature for 15 min (Ali et al. [2017]). Finally, the percentage of apoptotic cells was analyzed by flow cytometry using FITC signal detector (usually FL-1) and PI staining by the phycoerythrin emission signal detector (usually FL-2).

[11] = system: A549 cells; experiment: Flow-cytometric analysis of apoptosis (Annexin V-FITC/PI); assay type: cell-based, human; settings: IC50 conc., 48 h
Experimental: as §4

Row | Compound | IC50 [1] [µg/mL] | melting point [°C] | IC50 values, Lung carcinoma (A549) [1] [µg/mL] | IC50 [2] [µg/mL] | further results
1 | COc1ccc(-c2cn(-c3ccccc3)nc2/C=C/C(=O)c2c(-c3ccco3)nn(-c3ccc([N+](=O)[O-])cc3)c2C)cc1 [7f, (E)-1-(3-(Furan-2-yl)-5-methyl-1-(4-nitrophenyl)-1H-pyrazol-4-yl)-3-(4-(4-methoxyphenyl)-1-phenyl-1H-pyrazol-3-yl)prop-2-en-1-one] | 238 (≈ 416 µM) | 232 to 234 |  | 296 (≈ 518 µM) | 
2 | O=c1[nH]cc(F)c(=O)[nH]1 [5-FU, reference compound] |  |  | 147.29 (≈ 1130 µM) |  | 
3 | Cc1ccc(-c2cn(-c3ccccc3)nc2/C=C/C(=O)c2c(-c3ccco3)nn(-c3ccc([N+](=O)[O-])cc3)c2C)cc1 [7e, (E)-1-(3-(Furan-2-yl)-5-methyl-1-(4-nitrophenyl)-1H-pyrazol-4-yl)-3-(1-phenyl-4-(p-tolyl)-1H-pyrazol-3-yl)prop-2-en-1-one] | 217 (≈ 391 µM) | 248 to 250 |  | 296 (≈ 532 µM) | 
4 | Cc1c(C(=O)/C=C/c2nn(-c3ccccc3)cc2-c2ccc([N+](=O)[O-])cc2)c(-c2ccco2)nn1-c1ccc([N+](=O)[O-])cc1 [7h, (E)-1-(3-(Furan-2-yl)-5-methyl-1-(4-nitrophenyl)-1H-pyrazol-4-yl)-3-(4-(4-nitrophenyl)-1-phenyl-1H-pyrazol-3-yl)prop-2-en-1-one] | 211 (≈ 360 µM) | 242 |  | 224 (≈ 382 µM) | 
5 | Cc1c(C(=O)/C=C/c2nn(-c3ccccc3)cc2-c2ccccc2)c(-c2ccco2)nn1-c1ccc([N+](=O)[O-])cc1 [7d, (E)-3-(1,4-Diphenyl-1H-pyrazol-3-yl)-1-(3-(furan-2-yl)-5-methyl-1-(4-nitrophenyl)-1H-pyrazol-4-yl)prop-2-en-1-one] | 76.5 (≈ 141 µM) | 168 to 170 | 76.52 (≈ 141 µM) | 261 (≈ 483 µM) | 
6 | Cc1c(C(=O)/C=C/c2nn(-c3ccccc3)cc2-c2ccc(Cl)cc2)c(-c2ccco2)nn1-c1ccc([N+](=O)[O-])cc1 [7g, (E)-3-(4-(4-Chlorophenyl)-1-phenyl-1H-pyrazol-3-yl)-1-(3-(furan-2-yl)-5-methyl-1-(4-nitrophenyl)-1H-pyrazol-4-yl)prop-2-en-1-one] | 251 (≈ 437 µM) | 242 to 244 |  | 379 (≈ 658 µM) | 

Further lines, with some results ahead:

Row | IC50 [1] [µg/mL] | melting point [°C] | IC50 values, Lung carcinoma (A549) [1] [µg/mL] | Compound | IC50 [2] [µg/mL] | further results
7 | 20 (≈ 49.3 µM) | 142 to 144 | 20.05 (≈ 49.5 µM) | Cc1c(C(=O)/C=C/c2cccs2)c(-c2ccco2)nn1-c1ccc([N+](=O)[O-])cc1 [7b, (E)-1-(3-(Furan-2-yl)-5-methyl-1-(4-nitrophenyl)-1H-pyrazol-4-yl)-3-(thiophen-2-yl)prop-2-en-1-one] | 108 (≈ 267 µM) | Gene expression (fold change/ β-actin), BAX [3]: 7.93 fold change; Gene expression (fold change/ β-actin), Bcl2 [4]: 0.44 fold change; Gene expression (fold change/ β-actin), P53 [5]: 4.69 fold change; Gene expression (fold change/ β-actin), CDK4 [6]: 0.39 fold change; Enzyme activity ± SD, Caspase 3 [7]: 495.4 pg/mL and 495.4 ± 6.52 pg/mL; Enzyme activity ± SD, Caspase 8 [8]: 1.575 ± 0.05 pg/mL; Enzyme activity ± SD, Caspase 9 [9]: 15.76 ± 0.06 pg/mL; Cell cycle arrest (phase) [10]: cell cycle arrest at G0/G1 and S phases; G2/M % (DNA content) ([10]; untreated control 15.63): 4.21%; S % (DNA content) ([10]; untreated control 37.15): 43.42%; G0/G1% (DNA content) ([10]; untreated control 47.22): 52.37%; Apoptosis % % Late ([11]; untreated control 0.11): 21.24%; Apoptosis % % Early ([11]; untreated control 0.34): 3.69%; Necrosis% ([11]; untreated control 1.26): 17.23%; Apoptosis % %Total ([11]; untreated control 1.71): 42.16%
8 | 13.9 (≈ 34.6 µM) | 198 to 200 |  | Cc1c(C(=O)/C=C/c2ccncc2)c(-c2ccco2)nn1-c1ccc([N+](=O)[O-])cc1 [7c, (E)-1-(3-(Furan-2-yl)-5-methyl-1-(4-nitrophenyl)-1H-pyrazol-4-yl)-3-(pyridin-4-yl)prop-2-en-1-one] | 18.2 (≈ 45.5 µM) | Gene expression (fold change/ β-actin), BAX [3]: 4.78 fold change; Gene expression (fold change/ β-actin), Bcl2 [4]: 0.61 fold change; Gene expression (fold change/ β-actin), P53 [5]: 2.32 fold change; Gene expression (fold change/ β-actin), CDK4 [6]: 0.54 fold change; Enzyme activity ± SD, Caspase 3 [7]: 377.2 pg/mL and 377.2 ± 6.04 pg/mL; Enzyme activity ± SD, Caspase 8 [8]: 1.042 pg/mL and 1.042 ± 0.02 pg/mL; Enzyme activity ± SD, Caspase 9 [9]: 11.2 pg/mL and 11.2 ± 0.52 pg/mL
9 | 42.7 (≈ 110 µM) | 138 to 140 |  | Cc1c(C(=O)/C=C/c2ccco2)c(-c2ccco2)nn1-c1ccc([N+](=O)[O-])cc1 [7a, (E)-3-(Furan-2-yl)-1-(3-(furan-2-yl)-5-methyl-1-(4-nitrophenyl)-1H-pyrazol-4-yl)prop-2-en-1-one] | 68 (≈ 175 µM) | 
